# Patent US4520026A, “Indolizine derivatives and use as cardiovascular agents” (S. A. Labaz N.V., priority 1982, dated 1985)
# How the values were obtained:
# [1] = test system: blood-flow to the myocardium; assay: Effect on blood-flow to the myocardium, anaesthetized dogs, intravenous; format: in vivo, dog; conditions: anaesthetized dog
# Protocol: It was undertaken on anaesthetized dogs which received the substance under study by intravenous route. The intensity of the maximum effect on blood-flow to the myocardium was expressed in percentage of the corresponding value before injection. The time required for the maximum effect to decrease by 50% represented the duration of the effect. This time was measured in minutes.
# [2] = test system: epinephrine-increased blood-pressure (anti-α effect); assay: Antiadrenergic effect: anti-α effect (reduction of epinephrine-increased blood-pressure); format: in vivo; conditions: dog
# Protocol: (§1) The purpose of this test was to determine the capacity of the compounds under study to reduce epinephrine-increased blood-pressure (anti-α effect) and epinephrine-accelerated heart rate (anti-β effect) in the dog previously anaesthetized with pentobarbital and atropinized.
# (§2) For each dog, the dose of epinephrine was first determined which provoked a reproductible increase by about 100 mm. Hg in the arterial pressure (between 5 and 10 μg/kg). After that, the dose of epinephrine so determined was administered followed by a dose by intravenous route of the compound to be studied. The percentage of reduction of the hypertension provoked by the compound under study in comparison with the hypertension previously obtained (about 100 mm. Hg) was then registered.
# (§3) The percentage of reduction of the epinephrine-induced acceleration of heart-rate produced by the compound under study in comparison with the tachycardia previously measured (about 70 beats) was then registered. In both cases, the results were expressed as follows: […]
# (§4) + for a <50%-reduction of the increase in pressure or cardiac frequency
# (§5) ++ for a ≥50%-reduction of the increase in pressure or cardiac frequency
# (§6) +++ for a subtotal reduction of the increase in pressure or cardiac frequency
# [3] = test system: epinephrine-accelerated heart rate (anti-β effect); assay: Antiadrenergic effect: anti-β effect (reduction of epinephrine-accelerated heart rate); format: in vivo; conditions: dog
# Protocol: as §1, §2, §3, §4, §5, §6
# [4] = Canis lupus familiaris, iv, dose 10 mg/kg i.v., read-out: Max. increase (blood-flow to the myocardium)
# [5] = Canis lupus familiaris, iv, dose 10 mg/kg i.v.
# [6] = Canis lupus familiaris, iv, dose 5 mg/kg i.v.
# [7] = Canis lupus familiaris, iv, dose 7.5 mg/kg i.v.
# [8] = Canis lupus familiaris, iv, dose 8.76 mg/kg i.v.
smiles,measurement,setting,value
"CCCN(CCC)CCCOc1ccc(C(=O)c2c(-c3ccccc3)c(Br)c3ccccn23)cc1Br [Br/Br/H/drawing 11/n-C3H7/3, 1-Bromo-2-phenyl-3-[4-(3-di-n-propylaminopropyl)-oxy-3-bromo-benzoyl]-indolizine]",change in vivo at 10 mg/kg,[1]; [4],100%
same,Time required to decrease to 50% (duration of effect),[1]; dose 10 mg/kg i.v.,20 min
CCCCN(CCCC)CCCOc1ccc(C(=O)c2c(-c3cccc(Br)c3)c(Br)c3ccccn23)cc1Br [Br/Br/H/drawing 12/n-C4H9/3],change in vivo at 10 mg/kg,[1]; [4],150%
same,Time required to decrease to 50% (duration of effect),[1]; dose 10 mg/kg i.v.,100 min
"CCCc1c(Br)c2ccccn2c1C(=O)c1ccc(OCCCN(CCC)CCC)c(Br)c1 [Br/Br/H/n-C3H7/n-C3H7/3, 1-Bromo-2-n-propyl-3-[4-(3-di-n-propylaminopropyl)-oxy-3-bromo-benzoyl]-indolizine]",change in vivo at 10 mg/kg,[1]; [4],90%
same,Time required to decrease to 50% (duration of effect),[1]; dose 10 mg/kg i.v.,20 min
"CCCCc1c(Br)c2ccccn2c1C(=O)c1ccc(OCCCN(CCC)CCC)c(Br)c1 [Br/Br/H/n-C4H9/n-C3H7/3, 1-Bromo-2-n-butyl-3-[4-(3-di-n-propylaminopropyl)-oxy-3-bromo-benzoyl]-indolizine]",change in vivo at 10 mg/kg,[1]; [4],100%
same,Time required to decrease to 50% (duration of effect),[1]; dose 10 mg/kg i.v.,20 min
CCCCN(CCCC)CCCOc1ccc(C(=O)c2c(-c3ccccc3)c(Br)c3ccccn23)cc1Cl [Br/Cl/H/drawing 17/n-C4H9/3],change in vivo at 10 mg/kg,[1]; [4],90%
same,Time required to decrease to 50% (duration of effect),[1]; dose 10 mg/kg i.v.,90 min
CCCN(CCC)CCCOc1ccc(C(=O)c2c(-c3ccc(Br)cc3)c(Br)c3ccccn23)cc1Cl [Br/Cl/H/drawing 18/n-C3H7/3],change in vivo at 10 mg/kg,[1]; [4],50%
same,Time required to decrease to 50% (duration of effect),[1]; dose 10 mg/kg i.v.,50 min
CCCN(CCC)CCCOc1ccc(C(=O)c2c(-c3ccc(Cl)cc3)c(Br)c3ccccn23)cc1Cl [Br/Cl/H/drawing 19/n-C3H7/3],change in vivo at 10 mg/kg,[1]; [4],63%
same,Time required to decrease to 50% (duration of effect),[1]; dose 10 mg/kg i.v.,45 min
"CCCCN(CCCC)CCCOc1ccc(C(=O)c2c(C(C)C)c(Br)c3ccccn23)cc1Cl [Br/Cl/H/iso-C3H7/n-C4H9/3, 1-Bromo-2-isopropyl-3-[4-(3-di-n-butylaminopropyl)-oxy-3-chloro-benzoyl]-indolizine]",change in vivo at 5 mg/kg,"[1]; Canis lupus familiaris, iv, dose 5 mg/kg i.v., read-out: Max. increase (blood-flow to the myocardium)",133%
same,Time required to decrease to 50% (duration of effect),[1]; dose 5 mg/kg i.v.,20 min
"CCCN(CCC)CCCOc1c(Cl)cc(C(=O)c2c(CC)c(Cl)c3ccccn23)cc1Cl [Cl/Cl/Cl/C2H5/n-C3H7/3, 1-Chloro-2-ethyl-3-[4-(3-di-n-propylaminopropyl)-oxy-3,5-dichloro-benzoyl]-indolizine]",inhibition in vivo at 10 mg/kg,[2]; [5],> 50%
same,inhibition in vivo at 10 mg/kg,[3]; [5],> 50%
"CCCCN(CCCC)CCCOc1c(Cl)cc(C(=O)c2c(-c3ccccc3)c(Cl)c3ccccn23)cc1Cl [Cl/Cl/Cl/drawing 37/n-C4H9/3, 1-Chloro-2-phenyl-3-[4-(3-di-n-butylaminopropyl)-oxy-3,5-dichloro-benzoyl]-indolizine]",Anti-α effect,[2]; dose 10 mg/kg i.v.,+++
same,inhibition in vivo at 10 mg/kg,[3]; [5],> 50%
"CCCN(CCC)CCCOc1ccc(C(=O)c2c(-c3cccc(Br)c3)c(Cl)c3ccccn23)cc1Cl [Cl/Cl/H/drawing 33/n-C3H7/3, 1-Chloro-2-(3-bromo-phenyl)-3-[4-(3-di-n-propylaminopropyl)-oxy-3-chloro-benzoyl]-indolizine]",Anti-α effect,[2]; dose 8 mg/kg i.v.,+++
same,inhibition in vivo at 8 mg/kg,"[3]; Canis lupus familiaris, iv, dose 8 mg/kg i.v.",> 50%
CCCCN(CCCC)CCCOc1ccc(C(=O)c2c(-c3ccc(Cl)cc3)c(Cl)c3ccccn23)cc1 [Cl/H/H/drawing 34/n-C4H9/3],Anti-α effect,[2]; dose 10 mg/kg i.v.,+++
same,inhibition in vivo at 10 mg/kg,[3]; [5],> 50%
CCCN(CCC)CCCOc1ccc(C(=O)c2c(-c3ccc(Cl)cc3)c(Cl)c3ccccn23)cc1 [Cl/H/H/drawing 35/n-C3H7/3],inhibition in vivo at 5 mg/kg,[2]; [6],> 50%
same,inhibition in vivo at 5 mg/kg,[3]; [6],< 50%
CCCCN(CCCC)CCCOc1ccc(C(=O)c2c(-c3ccccc3)c(Cl)c3ccccn23)cc1 [Cl/H/H/drawing 36/n-C4H9/3],Anti-α effect,[2]; dose 5 mg/kg i.v.,+++
same,Anti-β effect,[3]; dose 5 mg/kg i.v.,+++
"CCCCN(CCCC)CCCOc1ccc(C(=O)c2c(CCC)c(Cl)c3ccccn23)cc1 [Cl/H/H/n-C3H7/n-C4H9/3, 1-Chloro-2-n-propyl-3-[4-(3-di-n-butylaminopropyl)-oxy-benzoyl]-indolizine]",Anti-α effect,[2]; dose 7.5 mg/kg i.v.,+++
same,Anti-β effect,[3]; dose 7.5 mg/kg i.v.,+++
CCCN(CCC)CCCOc1c(Br)cc(C(=O)c2c(-c3ccc(Br)cc3)cc3ccccn23)cc1Br [H/Br/Br/drawing 41/n-C3H7/3],Anti-α effect,[2]; dose 10 mg/kg i.v.,+++
same,Anti-β effect,[3]; dose 10 mg/kg i.v.,+++
CCCCN(CCCC)CCCOc1c(Br)cc(C(=O)c2c(-c3ccccc3)cc3ccccn23)cc1Br [H/Br/Br/drawing 42/n-C4H9/3],inhibition in vivo at 10 mg/kg,[2]; [5],> 50%
same,inhibition in vivo at 10 mg/kg,[3]; [5],> 50%
"CCCCN(CCCC)CCCOc1ccc(C(=O)c2c(CC)cc3ccccn23)cc1Br [H/Br/H/C2H5/n-C4H9/3, 2-Ethyl-3-[4-(3-di-n-butylaminopropyl)-oxy-3-bromo-benzoyl]-indolizine]",Anti-α effect,[2]; dose 7.5 mg/kg i.v.,+++
same,inhibition in vivo at 7.5 mg/kg,[3]; [7],> 50%
CCCCN(CCCC)CCCOc1ccc(C(=O)c2c(-c3ccccc3)cc3ccccn23)cc1Br [H/Br/H/drawing 24/n-C4H9/3],Anti-α effect,[2]; dose 10 mg/kg i.v.,+++
same,inhibition in vivo at 10 mg/kg,[3]; [5],> 50%
"CCCN(CCC)CCCOc1ccc(C(=O)c2c(C(C)C)cc3ccccn23)cc1Br [H/Br/H/iso-C3H7/n-C3H7/3, 2-Isopropyl-3-[4-(3-di-n-propylaminopropyl)-oxy-3-bromo-benzoyl]-indolizine]",Anti-α effect,[2]; dose 7.5 mg/kg i.v.,+++
same,inhibition in vivo at 7.5 mg/kg,[3]; [7],> 50%
CCCCN(CCCC)CCCOc1ccc(C(=O)c2c(C(C)C)cc3ccccn23)cc1Br [H/Br/H/iso-C3H7/n-C4H9/3],Anti-α effect,[2]; dose 6 mg/kg i.v.,+++
same,inhibition in vivo at 6 mg/kg,"[3]; Canis lupus familiaris, iv, dose 6 mg/kg i.v.",> 50%
"CCCCc1cc2ccccn2c1C(=O)c1ccc(OCCCN(CCC)CCC)c(Br)c1 [H/Br/H/n-C4H9/n-C3H7/3, 2-n-Butyl-3-[4-(3-di-n-propylaminopropyl)-oxy-3-bromo-benzoyl]-indolizine]",Anti-α effect,[2]; dose 5 mg/kg i.v.,+++
same,inhibition in vivo at 5 mg/kg,[3]; [6],> 50%
"CCCCN(CCCC)CCCOc1ccc(C(=O)c2c(CC)cc3ccccn23)cc1C [H/CH3/H/C2H5/n-C4H9/3, 2-Ethyl-3-[4-(3-di-n-butylaminopropyl)-oxy-3-methyl-benzoyl]-indolizine]",Anti-α effect,[2]; dose 10 mg/kg i.v.,+++
same,Anti-β effect,[3]; dose 10 mg/kg i.v.,+++
"CCCCN(CCCC)CCCOc1ccc(C(=O)c2c(C)cc3ccccn23)cc1C [H/CH3/H/CH3/n-C4H9/3, 2-Methyl-3-[4-(3-di-n-butylaminopropyl)-oxy-3-methyl-benzoyl]-indolizine]",inhibition in vivo at 8.76 mg/kg,[2]; [8],> 50%
same,inhibition in vivo at 8.76 mg/kg,[3]; [8],> 50%
"CCCCN(CCCC)CCCOc1ccc(C(=O)c2c(C(C)C)cc3ccccn23)cc1C [H/CH3/H/iso-C3H7/n-C4H9/3, 2-Isopropyl-3-[4-(3-di-n-butylaminopropyl)-oxy-3-methyl-benzoyl]-indolizine]",Anti-α effect,[2]; dose 7.5 mg/kg i.v.,+++
same,Anti-β effect,[3]; dose 7.5 mg/kg i.v.,+++
"CCCCc1cc2ccccn2c1C(=O)c1ccc(OCCCN(CCCC)CCCC)c(C)c1 [H/CH3/H/n-C4H9/n-C4H9/3, 2-n-Butyl-3-[4-(3-di-n-butylaminopropyl)-oxy-3-methyl-benzoyl]-indolizine]",inhibition in vivo at 10 mg/kg,[2]; [5],> 50%
same,inhibition in vivo at 10 mg/kg,[3]; [5],> 50%
"CCCN(CCC)CCCOc1ccc(C(=O)c2c(CC)cc3ccccn23)cc1Cl [H/Cl/H/C2H5/n-C3H7/3, 2-Ethyl-3-[4-(3-di-n-propylaminopropyl)-oxy-3-chloro-benzoyl]-indolizine]",inhibition in vivo at 10 mg/kg,[2]; [5],> 50%
same,inhibition in vivo at 10 mg/kg,[3]; [5],> 50%
CCCCN(CCCC)CCCOc1ccc(C(=O)c2c(-c3cccc(Br)c3)cc3ccccn23)cc1Cl [H/Cl/H/drawing 25/n-C4H9/3],inhibition in vivo at 10 mg/kg,[2]; [5],> 50%
same,inhibition in vivo at 10 mg/kg,[3]; [5],> 50%
CCCCN(CCCC)CCCOc1ccc(C(=O)c2c(-c3ccc(Br)cc3)cc3ccccn23)cc1Cl [H/Cl/H/drawing 31/n-C4H9/3],inhibition in vivo at 10 mg/kg,[2]; [5],> 50%
same,inhibition in vivo at 10 mg/kg,[3]; [5],< 50%
"CCCCN(CCCC)CCCOc1ccc(C(=O)c2c(CC)cc3ccccn23)cc1OC [H/OCH3/H/C2H5/n-C4H9/3, 2-Ethyl-3-[4-(3-di-n-butylaminopropyl)-oxy-3-methoxy-benzoyl]-indolizine]",Anti-α effect,[2]; dose 10 mg/kg i.v.,+++
same,inhibition in vivo at 10 mg/kg,[3]; [5],> 50%
"CCCN(CCC)CCCOc1ccc(C(=O)c2c(-c3ccccc3)c(OC)c3ccccn23)cc1Cl [OCH3/Cl/H/drawing 43/n-C3H7/3, 1-Methoxy-2-phenyl-3-[4-(3-di-n-propylaminopropyl)-oxy-3-chloro-benzoyl]-indolizine]",Anti-α effect,[2]; dose 10 mg/kg i.v.,+++
same,Anti-β effect,[3]; dose 10 mg/kg i.v.,+++
CCCN(CCC)CCCOc1ccc(C(=O)c2c(-c3ccccc3)c(OC)c3ccccn23)cc1OC [OCH3/OCH3/H/drawing 44/n-C3H7/3],inhibition in vivo at 10 mg/kg,[2]; [5],> 50%
same,inhibition in vivo at 10 mg/kg,[3]; [5],> 50%
